Data from US20260083743A1, “NUCLEOSIDE DERIVATIVE FOR PREVENTING AND TREATING INFLAMMATION AND APPLICATION THEREOF” (WEST CHINA HOSPITAL OF SICHUAN UNIVERSITY, priority 2019, published 2026).

What was measured:
C57 mice = assay: Toxicity test, 180 consecutive days by gavage in C57 mice; type: in vivo; details: 100 mg/kg/D for 180 consecutive days by gavage
Procedure: In this example, the toxicities of compounds 1-19 prepared in example 1 were analyzed.
C57 mice were given compounds 1-19 at a dose of 100 mg/kg/D for 180 consecutive days by gavage. One hour after the last administration of the drug, the mice were anesthetized by intraperitoneal injection of sodium pentobarbital (40 mg/kg), placed on a constant temperature hot plate at 37±1° C., blood was taken by cardiac puncture or pathological sections were made to detect the side effects (gastrointestinal reaction, nervous system toxicity, hematological toxicity, allergic reaction, nephrotoxicity, hepatotoxicity, rash and asthma) The side effects of aspirin, ibuprofen, indomethacin, phenylbutazone, diclofenac, piroxicam and glucocorticoid groups were investigated according to the same administration method as compounds 1-19.

mouse hepatitis model = assay: Improvement effect on hepatitis, concanavalin A (ConA) mouse hepatitis model; type: in vivo, Blab/c mice; details: gavage 50 mg/kg, n = 10
Procedure: In this example, the improvement effect of compounds 1 19 prepared in example 1 on […] measured. (1) Animals: Adult and Healthy Male Blab/c Mice, 25 30 g. […] The blank control group was injected with equal volume of isotonic saline. After modeling, indomethacin and compounds 1 19 were given by gavage every day at the dose of 50 mg/kg. The blank control group and the model control group were given equal volume of isotonic saline. Eyeball blood and liver tissue were taken at 6 h, 12 h, 24 h and 48 h after administration. The levels of serum alanine aminotransferase (ALT) and aspartate aminotransferase (AST) were measured.

arthritis model = assay: Improvement effect on arthritis, sodium iodoacetate knee joint model in SD rats; type: in vivo; parameters: Pathological tissue score (joint): scale not given here; details: gavage every day 100 mg/kg/d; 4th week after operation; n = 10
Procedure: In this example, the improvement effect of compounds 1˜19 prepared in example 1 on arthritic was measured. (1) Animals: SD rats, four rates in one cage, were fed under the conditions of constant temperature (25±2° C.) and illumination control (12 h day/night circulation). The animals were fed with standard feed, and fed for at least 7 days to adapt environment before the experiment. […] (3) SD rats were fasted for 12 hours before operation, and weighed and recorded prior to operation. The blank control group was not treated any more. […] After anesthesia, they were fixed in the supine position. 0.1 ml of 1 g/L sodium iodoacetate solution was injected into the knee joint. From the fifth day, the animals were driven to run for 30 minutes every day, and they were allowed to move freely in the cage the rest of the time. After modeling, indomethacin and compounds 1˜19 were given by gavage every day at the dose of 100 mg/kg/d. The blank control group and the model control group were given equal volume of isotonic saline. At the 4th week after operation, the articular fluid of rats in each group was extracted to measure the content of MMP-13. The rats were killed, and the subchondral bone plate of the inner condyle of the tibia of the right knee was cut and processed into specimens, and pathological scores were made.

COc1ccc2c(c1)c(CC(=O)O)c(C)n2C(=O)c1ccc(Cl)cc1 [Indometacin, indometacin, reference compound]
Occurrence rate of side effects (C57 mice): 20%
Aspartate aminotransferase (AST) (mouse hepatitis model; 6 h after administration): 220 ± 19 U/L
Serum alanine aminotransferase (ALT) (mouse hepatitis model; 6 h after administration): 465 ± 43 U/L
Aspartate aminotransferase (AST) (mouse hepatitis model; 12 h after administration): 780 ± 82 U/L
Serum alanine aminotransferase (ALT) (mouse hepatitis model; 12 h after administration): 1232 ± 113 U/L
Aspartate aminotransferase (AST) (mouse hepatitis model; 24 h after administration): 1021 ± 103 U/L
Serum alanine aminotransferase (ALT) (mouse hepatitis model; 24 h after administration): 2165 ± 203 U/L
Aspartate aminotransferase (AST) (mouse hepatitis model; 48 h after administration): 870 ± 91 U/L
Serum alanine aminotransferase (ALT) (mouse hepatitis model; 48 h after administration): 1287 ± 133 U/L
MMP-13 content in joint fluid (arthritis model): 195 ± 8 mg/L
Pathological tissue score (joint) (arthritis model): 2.1 ± 0.3
